Assay results as given in patent US20260226493A1, “HERBICIDE RESISTANT PLANTS” (SYNGENTA CROP PROTECTION AG, priority 2023, published 2026).

Columns and labels:
Type in all cases: biochemical
[1] = system: Nannochloropsis gaditana BioDA; test: BioDA enzyme activity with DMSO or herbicide in vitro
Text: (§1) A pet-24 plasmid containing a DNA sequence encoding each identified variant mutant of BIO3-BIO1 derived from Arabidopsis thaliana from example 5 above, as shown in Table 13 below and as shown in full in SEQ ID NOs: 15 to 155, codon-optimised for expression in E. coli, with an N-terminal 6×His-tag and thrombin cleavage site and under control of a T7 promoter, and was synthesised by Twist Bioscience, in a similar manner to SEQ ID NO:311. These plasmids were then expressed in E. coli BL21 (DE3) bioA with 50 μg/mL kanamycin and 25 μg/mL chloramphenicol selection. Overnight cultures grown at 37° C. were used to inoculate 8×500 mL AIM in shake flasks at a ratio of 1:100. Cultures were grown at 37° C., 200 rpm for 3.5 hours and then overnight at 20° C. Cells were harvested by centrifugation for 30 minutes at 10 000 g. Cells were stored at −80° C. until extraction. 30 g of cell pellet from was thawed in 120 mL of IMAC buffer A (20 mM HEPES pH7.5, 25 mM imidazole, 500 mM sodium chloride, 0.15 mM pyridoxal phosphate, 0.5 mM TCEP, 1× complete Protease Inhibitor Tablet (Roche)). The resuspension was passed through a cell disrupter at 18 000 PSI and centrifuged at 50 000 g for 25 minutes at 4° C. The His-tagged BIO3-BIO1 protein was purified from the extract supernatant on an AKTA avant chromatography system (Cytiva) using a HisTrap FF column and eluted in IMAC buffer B ((20 mM HEPES pH7.5, 500 mM imidazole, 500 mM sodium chloride, 0.15 mM pyridoxal phosphate, 0.5 mM TCEP) followed by SEC using a HiLoad 26/60 Superdex200 column in SEC buffer (25 mM HEPES pH7.5, 150 mM sodium chloride, 0.15 mM pyridoxal phosphate, 0.5 mM TCEP). Protein concentration was measured and calculated using the absorbance at 280 nm. Extracts were diluted 1 in 4 and 10 uL was analysed by SDS PAGE.
(§2) To measure BIO3-BIO1 mutant enzyme activity in the presence of herbicide, herbicides were incubated with 20 μL of enzyme mix (100 mM EPPS pH 8.6, 0.1 mM pyridoxal phosphate, 0.1 mg/mL BSA, 50 nM BIO3-BIO1 enzyme) for 10 minutes at 20° C. in a well of a 96-well half-area black plate, followed by the addition of 20 μL of substrate mix (final concentration of 100 mM EPPS pH 8.6, 0.1 mM pyridoxal phosphate, 0.1 mg/mL BSA, 100 μM spermidine, 20 μM KAPA, 100 mM NaCO3) and further incubation for 75 minutes at 20° C. The reaction was terminated by the addition of 50 μL of derivatisation mix (final concentration of 250 mM borate NaOH pH 9.4, 3.6 mM o-phthalaldehyde, 7 mM β-mercaptoethanol, 17% (v/v) ethanol, 3.6% (v/v) methanol). The fluorescent product produced by the reaction of DAPA with o-phthalaldehyde and 7 mM β-mercaptoethanol was measured at 470 nm after excitation at 410 nm. The percentage inhibition was calculated as the activity in the presence of one of three concentrations of each herbicide compound A to M (note that the compounds labelled as A to M are identified hereinabove in the relevant section of the description) as a percentage of the activity in DMSO (Table 12 and 13). The percentage activity versus WT was also calculated and is shown in Table 13 and 14 (NT indicates mutation not tested in table 13, note that these mutations are tested at different compound concentrations for compounds L, M and C, and the results are shown in table 14).
(§3) The activity of various wild-type BioDA and variant enzymes was also tested when treated with DMSO or herbicide in vitro.
(§4) Protein of Schizosaccharomyces japonicus BioDA (SEQ ID NO:13), Nannochloropsis gaditana BioDA (SEQ ID NO:3), Selaginella moellendorffii BioDA (SEQ ID NO:319), Quercus robur BioDA (SEQ ID NOA11), Ostreococcus tauri BioDA (SEQ ID NO:9), and the variants of Ostreococcus tauri BioDA A374D, F332A and P407A (SEQ ID Nos:321-323) was prepared using the method in Example 6. BioDA enzyme activity in the presence of herbicide or DMSO in vitro for each of the proteins was assayed according to the enzyme assay method above. The results are shown in Table 26 provided below in the “TABLES” section.

Ostreococcus tauri BioDA = test: as above; settings: Ostreococcus tauri BioDAΔMTP
Text: as §1, §2, §3, §4

Quercus robur BioDA = test: as above; settings: Quercus robur BioDAΔMTP
Text: as §1, §2, §3, §4

[2] = system: Selaginella moellendorffii BioDA; test: as above; settings: Selaginella moellendorcffii BioDAΔMTP
Text: as §1, §2, §3, §4

Escherichia coli BioA = target: T1, Escherichia coli BioA (Escherichia coli, UniProt P12995); test: BioA enzyme activity with DMSO or herbicide in vitro; settings: SAM in substrate mix, read-out: % Inhibition relative to DMSO treatment
T1 construct: 6xHis-tag (N); thrombin cleavage site (N); made in house; host or cells: E. coli BL21 (DE3) bioA
T1 sequence (P12995 whole entry): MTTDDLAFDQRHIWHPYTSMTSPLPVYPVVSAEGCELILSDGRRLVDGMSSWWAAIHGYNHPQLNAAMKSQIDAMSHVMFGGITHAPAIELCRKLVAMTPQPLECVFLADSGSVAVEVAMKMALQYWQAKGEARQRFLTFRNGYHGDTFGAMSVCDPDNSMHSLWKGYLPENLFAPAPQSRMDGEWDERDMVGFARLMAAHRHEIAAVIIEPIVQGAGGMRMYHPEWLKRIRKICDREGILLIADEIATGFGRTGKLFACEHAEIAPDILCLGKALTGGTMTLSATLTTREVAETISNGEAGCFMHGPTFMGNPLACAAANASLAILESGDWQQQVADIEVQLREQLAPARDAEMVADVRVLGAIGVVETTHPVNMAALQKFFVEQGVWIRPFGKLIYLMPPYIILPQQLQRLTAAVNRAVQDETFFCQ
Text: as §1, §2
(§5) Protein of Escherichia coli BioA (SEQ ID NO:159), Pantoea ananatis BioA (SEQ ID NO:167), Streptomyces viridochromogenes BioA (SEQ ID NO:170), Cryptosporidium andersoni BioA (SEQ ID NO:160), Stenotrophomonas maltophilia BioA (SEQ ID NO:171), Chroococcidiopsis BioA (SEQ ID NO:184), Pedobacter hartonius BioA (SEQ ID NO:181), Chitinophaga filiformis BioA (SEQ ID NO:180), Tenacibaculum adriaticum BioA (SEQ ID NO:185) and Bacillus subtilis BioA (SEQ ID NO:166) was prepared using the method in Example 6. BioA enzyme activity in the presence of herbicide or DMSO in vitro for each of the proteins was assayed according to the enzyme assay method in Example 6, except in some reactions spermidine was replaced with 2 mM S-Adenosyl methionine.

Pantoea ananatis BioA = test: as above; settings: SAM in substrate mix
Text: as §1, §2, §5

[3] = system: Pedobacter hartonius BioA; test: as above; settings: spermidine in substrate mix
Text: as §1, §2, §5

[4] = system: Stenotrophomonas maltophilia BioA; test: as above; settings: spermidine in substrate mix
Text: as §1, §2, §5

[5] = system: Streptomyces viridochromogenes BioA; test: as above; settings: SAM in substrate mix
Text: as §1, §2, §5

[6] = system: Tenacibaculum adriaticum BioA; test: as above; settings: spermidine in substrate mix
Text: as §1, §2, §5

Structure (SMILES): CCn1c(C)c(-c2cc(OC(F)(F)F)ccc2Cl)c(=O)c(C(=O)O)c1-c1ccc(Cl)c(Cl)c1 [Compound D, 5-[2-chloro-5-(trifluoromethoxy)phenyl]-2-(3,4-dichlorophenyl)-1-ethyl-6-methyl-4-oxo-pyridine-3-carboxylic acid]
- % Inhibition relative to DMSO treatment ([1]; 0.5 μM): 14%
- % Inhibition relative to DMSO treatment (Ostreococcus tauri BioDA; 0.5 μM): 0%
- % Inhibition relative to DMSO treatment (Ostreococcus tauri BioDA; 5 μM): 36%
- % Inhibition relative to DMSO treatment (Quercus robur BioDA; 0.5 μM): 88%
- % Inhibition relative to DMSO treatment ([2]; 0.5 μM): 75%
- inhibition at 0.5 µM (Escherichia coli BioA; 0.5 μM): 6%
- % Inhibition relative to DMSO treatment (Pantoea ananatis BioA; 0.5 μM): 6%
- % Inhibition relative to DMSO treatment ([3]; 0.5 μM): 7%
- % Inhibition relative to DMSO treatment ([4]; 0.5 μM): 76%
- % Inhibition relative to DMSO treatment ([5]; 0.5 μM): 0%
- % Inhibition relative to DMSO treatment ([6]; 0.5 μM): 5%

Structure (SMILES): CCOC(=O)c1nn(-c2ccc3c(c2)OC(F)(F)C(F)(F)O3)c2cccc(C(C)=O)c2c1=O [Compound A, ethyl 5-acetyl-4-oxo-1-(2,2,3,3-tetrafluoro-1,4-benzodioxin-6-yl)cinnoline-3-carboxylate]
- % Inhibition relative to DMSO treatment ([1]; 25 μM): 5%
- % Inhibition relative to DMSO treatment (Ostreococcus tauri BioDA; 25 μM): 0%
- % Inhibition relative to DMSO treatment (Quercus robur BioDA; 25 μM): 72%
- % Inhibition relative to DMSO treatment ([2]; 25 μM): 25%
- inhibition at 25 µM (Escherichia coli BioA; 25 μM): 6%
- % Inhibition relative to DMSO treatment (Pantoea ananatis BioA; 25 μM): 7%
- % Inhibition relative to DMSO treatment ([3]; 25 μM): 6%
- % Inhibition relative to DMSO treatment ([4]; 25 μM): 0%
- % Inhibition relative to DMSO treatment ([5]; 25 μM): 0%
- % Inhibition relative to DMSO treatment ([6]; 25 μM): 14%
